According to US20240409669A1, “Neutralizing Trivalent Protein-DNA Molecules (TRI-PDBODY) for SARS-COV-2 Infection Treatment” (priority 2021, published 2024):

Target: RBD of spike protein binding with ACE2 protein (Severe acute respiratory syndrome coronavirus 2, UniProt P0DTC2)

**Q.** With Bovine serum albumin [BSA] as the substance, how does the “Competitive inhibition of ACE2 binding with RBD of spike” value read?
**A.** Its value is “non-competitive binding signal”.
